A short description of experiment [1]: Displacement of [3H]bremazocine from opioid receptor of guinea pig membrane. More on the design: species or system Cavia porcellus.
Experiment [2] concerns the target Kappa-type opioid receptor (Cavia porcellus, UniProt P41144). Description: Displacement of [3H]bremazocine from opioid receptor kappa of guinea pig membrane.
Experiment [3] concerns the target Opioid receptors; mu/kappa/delta (Homo sapiens, UniProt P41145+P41143+P35372). Description: Displacement of 0.5 nM [3H]bremazocine from opioid receptor sites in guinea pig membranes. Type of experiment: cell membranes, Cavia porcellus. The following applies: target entry is the homologue from another species.

Kappa-type opioid receptor, sequence (P41144 whole entry): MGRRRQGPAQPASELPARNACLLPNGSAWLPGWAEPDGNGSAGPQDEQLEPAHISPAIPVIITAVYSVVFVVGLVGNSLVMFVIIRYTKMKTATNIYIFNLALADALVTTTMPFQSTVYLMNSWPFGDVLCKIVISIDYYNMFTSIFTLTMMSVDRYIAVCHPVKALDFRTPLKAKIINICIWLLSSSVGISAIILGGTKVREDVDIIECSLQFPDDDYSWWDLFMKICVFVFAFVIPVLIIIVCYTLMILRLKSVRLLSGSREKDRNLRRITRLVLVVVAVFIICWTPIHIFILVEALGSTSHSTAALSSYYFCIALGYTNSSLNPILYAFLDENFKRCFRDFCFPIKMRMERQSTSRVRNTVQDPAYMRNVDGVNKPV

In general, IC50 refers to the concentration that gives 50% inhibition. Read a high IC50 as weaker potency in that assay. The molecule `C=C1C[C@H](CN2CC[C@]3(C)c4cc(O)ccc4C[C@@H]2[C@@H]3C)OC1=O` returned an IC50 in experiment [1] greater than 3000 nM. For the molecule `C[C@H]1[C@H]2Cc3ccc(O)cc3[C@@]1(C)CCN2C[C@H]1C=CC(=O)O1`, the results for the IC50 in experiment [1] and in experiment [2] were 89 nM and 74 nM, respectively. Turning to `C=C1C[C@@H](CN2CC[C@]3(C)c4cc(O)ccc4C[C@@H]2[C@@H]3C)OC1=O`, the IC50 in experiment [1] is 380 nM; in experiment [2] it was 400 nM. For the molecule `CC[C@@H]1[C@@H]2Cc3ccc(O)cc3[C@]1(CC)CCN2Cc1ccoc1`, the IC50 in experiment [1] was found to be 2200 nM.

Regarding `C[C@H]1[C@H]2Cc3ccc(O)cc3[C@]1(C)CCN2Cc1ccco1`, the results for the IC50 in experiment [1] and in experiment [2] were 6.8 nM and 5.7 nM, respectively.

On to `O=C1CC[C@@]2(O)[C@H]3Cc4ccc(O)c5c4[C@@]2(CCN3CC2CC2)[C@H]1O5` [NALTREXONE], for which, in experiment [1], the IC50 turned out to be 5.7 nM.

`C[C@@H]1[C@@H]2Cc3ccc(O)cc3[C@]1(C)CCN2C[C@@H]1CCCO1`: the IC50 in experiment [3] amounted to 1000 nM.

Take `C=C1C[C@H](CN2CC[C@@]3(C)c4cc(O)ccc4C[C@H]2[C@H]3C)OC1=O`: in experiment [1], the IC50 came to 1800 nM. In the case of `C[C@H]1[C@H]2Cc3ccc(O)cc3[C@@]1(C)CCN2C[C@@H]1C=CC(=O)O1`, the IC50 was found to be 7.4 nM in experiment [1] and 5.4 nM in experiment [2]. `C=CCN1CC[C@]23c4c5ccc(O)c4O[C@H]2C(=O)CC[C@@]3(O)[C@H]1C5` [NALOXONE] displayed an IC50 in experiment [1] of 23 nM. For `C[C@H]1[C@H]2Cc3ccc(O)cc3[C@@]1(C)CCN2C[C@H]1CCCO1`, the IC50 was found to be 84 nM in experiment [1] and 70 nM in experiment [2].

As to `CC[C@H]1[C@H]2Cc3ccc(O)cc3[C@@]1(CC)CCN2Cc1ccoc1`, the IC50 was determined as 2.9 nM in experiment [1] and 1.6 nM in experiment [2]. The matching figures for `C[C@H]1[C@H]2Cc3ccc(O)cc3[C@@]1(C)CCN2C[C@@H]1CCC(=O)O1`: 12 nM and 7.3 nM.

Regarding `C[C@H]1[C@H]2Cc3ccc(O)cc3[C@@]1(C)CCN2C[C@H]1CCC(=O)O1`, the IC50 is 620 nM in experiment [1] and 400 nM in experiment [2].

Consider `C=C1C[C@@H](CN2CC[C@@]3(C)c4cc(O)ccc4C[C@H]2[C@H]3C)OC1=O`, for which, in experiment [3], the IC50 is 1300 nM.

In the case of `C[C@H]1[C@H]2Cc3ccc(O)cc3[C@@]1(C)CCN2C[C@@H]1CCCO1`, the IC50 in experiment [1] turned out to be 2.3 nM; in experiment [2], 1.7 nM.

(Values after ChEMBL document CHEMBL1125178, “Electrophilic gamma-lactone kappa-opioid receptor probes. Analogues of 2'-hydroxy-2-tetrahydrofurfuryl-5,9-dimethyl-6,7-benzomorphan diastereomers” (J Med Chem, 1991).)
